Laboratory results published in patent publication US20250296959A1, “B7-H3 TARGETING PEPTIDES AND CONSTRUCTS THEREOF” (Mariana Oncology Inc., priority 2024, published 2025).
Starred links: 1 amine or outer side, 2 acyl side, 3 side chain; linkers in the order of their positions; H or OH if unused. Positions of bridges follow the written chain, without caps; N, C: chain ends. Non-standard residues stand in square brackets, D forms with d. Residues, ends and D or L forms follow the SMILES beside them. *: point of attachment. Ala(piperidin-4-yl) = O=C([C@H](CC1CCN([*:3])CC1)N[*:1])[*:2]; DOTA = O=C(O)CN1CCN(CC(=O)O)CCN(CC(=O)*)CCN(CC(=O)O)CC1; Trp(5-Cl) = N[C@@H](Cc1c[nH]c2ccc(Cl)cc12)C(=O)O; Trp(5-F) = N[C@@H](Cc1c[nH]c2ccc(F)cc12)C(=O)O; 1Nal = N[C@@H](Cc1cccc2ccccc12)C(=O)O; Val(3-OH) = CC(C)(O)[C@H](N)C(=O)O; 4Pal = N[C@@H](Cc1ccncc1)C(=O)O; Cha = N[C@@H](CC1CCCCC1)C(=O)O; Chg = N[C@H](C(=O)O)C1CCCCC1; Tle = CC(C)(C)[C@H](N)C(=O)O; hLeu = CC(C)CC[C@H](N)C(=O)O; αMeP = C[C@@]1(C(=O)O)CCCN1; NMeC = CN[C@@H](CS)C(=O)O; NMeS = CN[C@@H](CO)C(=O)O

target: T1, human 4lg B7-H3 (Homo sapiens, UniProt Q5ZPR3); experiment: Affinity determination by surface plasmon resonance (SPR) to 4Ig B7-H3; conditions: SPR KD—25° C., 4Ig B7-H3; 25° C. flow cell temperature
T1 sequence (Q5ZPR3 29-534): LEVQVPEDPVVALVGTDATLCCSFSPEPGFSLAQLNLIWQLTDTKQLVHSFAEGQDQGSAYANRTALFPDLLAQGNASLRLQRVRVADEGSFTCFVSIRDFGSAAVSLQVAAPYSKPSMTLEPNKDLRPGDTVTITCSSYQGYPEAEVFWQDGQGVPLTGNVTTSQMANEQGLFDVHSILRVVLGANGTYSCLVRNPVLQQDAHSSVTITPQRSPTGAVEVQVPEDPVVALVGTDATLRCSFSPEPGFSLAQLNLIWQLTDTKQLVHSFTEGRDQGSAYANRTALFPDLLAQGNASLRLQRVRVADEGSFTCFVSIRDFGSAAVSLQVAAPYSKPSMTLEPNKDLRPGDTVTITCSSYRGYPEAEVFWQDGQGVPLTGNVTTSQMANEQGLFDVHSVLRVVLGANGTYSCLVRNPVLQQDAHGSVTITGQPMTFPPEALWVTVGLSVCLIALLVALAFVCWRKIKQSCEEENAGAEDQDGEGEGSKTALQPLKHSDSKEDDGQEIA

Row | Structure (SMILES) | Kd [nM]
1 | CC[C@H](C)[C@@H]1NC(=O)[C@@H](NC(=O)[C@H](Cc2ccc(O)cc2)NC(=O)[C@H](CCC(C)C)NC(C)=O)CSSC[C@@H](C(=O)N[C@@H](Cc2c[nH]c3ccc(F)cc23)C(=O)N[C@@H](Cc2ccccc2)C(=O)N(C)[C@@H](CO)C(N)=O)NC(=O)[C@H](Cc2ccc(O)cc2)NC(=O)[C@H](C(C)C)NC(=O)[C@H](CC(=O)O)NC(=O)[C@H](CC2CCCCC2)NC(=O)[C@H](CCCCNC(=O)CN2CCN(CC(=O)O)CCN(CC(=O)O)CCN(CC(=O)O)CC2)NC(=O)CNC1=O [compound 232, Ac-hLeu-Y-C-Ile-G-Lys(DOTA)-CHA-D-V-Y-C-5FW-F-NMeSer-CONH2] (Ac-[hLeu]YCIGK(DOTA)[Cha]DVYC[Trp(5-F)]F[NMeS]-NH2; disulfide 3-11) | 10 to 100
2 | CC(=O)N[C@@H](CCC(C)C)C(=O)N[C@@H](Cc1ccc(O)cc1)C(=O)N[C@H]1CSSC[C@@H](C(=O)N[C@@H](Cc2c[nH]c3ccc(F)cc23)C(=O)N[C@@H](Cc2ccccc2)C(=O)N(C)[C@@H](CO)C(N)=O)NC(=O)[C@H](Cc2ccc(O)cc2)NC(=O)[C@H](C(C)C)NC(=O)[C@H](CC(=O)O)NC(=O)[C@H](CC2CCCCC2)NC(=O)[C@H](CCCCNC(=O)CN2CCN(CC(=O)O)CCN(CC(=O)O)CCN(CC(=O)O)CC2)NC(=O)CNC(=O)[C@H](C(C)C)NC1=O [compound 233, Ac-hLeu-Y-C-V-G-Lys(DOTA)-CHA-D-V-Y-C-5FW-F-NMeSer-CONH2] (Ac-[hLeu]YCVGK(DOTA)[Cha]DVYC[Trp(5-F)]F[NMeS]-NH2; disulfide 3-11) | 10 to 100
3 | CC(=O)N[C@@H](CCC(C)C)C(=O)N[C@@H](Cc1ccc(O)cc1)C(=O)N(C)[C@H]1CSSC[C@@H](C(=O)N[C@@H](Cc2c[nH]c3ccc(F)cc23)C(=O)N[C@@H](Cc2ccccc2)C(=O)N[C@H](C(=O)N[C@H](CCCCNC(=O)CN2CCN(CC(=O)O)CCN(CC(=O)O)CCN(CC(=O)O)CC2)C(N)=O)[C@@H](C)O)NC(=O)[C@H](Cc2ccc(O)cc2)NC(=O)[C@H](C(C)C)NC(=O)[C@H](CC(=O)O)NC(=O)[C@H](Cc2ccc(O)cc2)NC(=O)[C@H](CCCCN)NC(=O)CNC(=O)[C@H](C(C)C)NC1=O [compound 237, Ac-hLeu-Y-NMeCys-V-G-K-Y-D-V-Y-C-5FW-F-Thr-dLys(DOTA)-CONH2] (Ac-[hLeu]Y[NMeC]VGKYDVYC[Trp(5-F)]FT[dK](DOTA)-NH2; disulfide 3-11) | 1 to 10
4 | CC(=O)N[C@@H](CCC(C)C)C(=O)N[C@@H](Cc1ccc(O)cc1)C(=O)N[C@H]1CSSC[C@@H](C(=O)N[C@@H](Cc2cccc3ccccc23)C(=O)N[C@@H](Cc2ccccc2)C(=O)N(C)[C@@H](CO)C(=O)N[C@H](CCCCNC(=O)CN2CCN(CC(=O)O)CCN(CC(=O)O)CCN(CC(=O)O)CC2)C(N)=O)NC(=O)[C@H](C2CCCCC2)NC(=O)[C@H](C(C)C)NC(=O)[C@H](CC(=O)O)NC(=O)[C@H](Cc2ccncc2)NC(=O)[C@H](CCCCN)NC(=O)CNC(=O)[C@H](C(C)(C)C)NC1=O [compound 243, Ac-hLeu-Y-C-Tbg-G-K-4PyA-D-V-Chg-C-1Nal-F-NMeSer-dLys(DOTA)-CONH2] (Ac-[hLeu]YC[Tle]GK[4Pal]DV[Chg]C[1Nal]F[NMeS][dK](DOTA)-NH2; disulfide 3-11) | 10 to 100
5 | CC(=O)N[C@@H](CCC(C)C)C(=O)N[C@@H](Cc1ccc(O)cc1)C(=O)N[C@H]1CSSC[C@@H](C(=O)N[C@@H](Cc2cccc3ccccc23)C(=O)N[C@@H](Cc2ccccc2)C(=O)N2CCC[C@H]2C(=O)N[C@H](CCCCNC(=O)CN2CCN(CC(=O)O)CCN(CC(=O)O)CCN(CC(=O)O)CC2)C(N)=O)NC(=O)[C@H](Cc2ccc(O)cc2)NC(=O)[C@H](C(C)C)NC(=O)[C@H](CC(=O)O)NC(=O)[C@H](Cc2ccc(O)cc2)NC(=O)[C@H](CCCCN)NC(=O)CNC(=O)[C@H](C(C)C)NC1=O [compound 245, Ac-hLeu-Y-C-V-G-K-Y-D-V-Y-C-1Nal-F-Pro-dLys(DOTA)-CONH2] (Ac-[hLeu]YCVGKYDVYC[1Nal]FP[dK](DOTA)-NH2; disulfide 3-11) | 1 to 10
6 | CC(=O)N[C@@H](CCC(C)C)C(=O)N[C@@H](Cc1ccc(O)cc1)C(=O)N[C@H]1CSSC[C@@H](C(=O)N[C@@H](Cc2cccc3ccccc23)C(=O)N[C@@H](Cc2ccccc2)C(=O)N2CCC[C@@]2(C)C(=O)N[C@H](CCCCNC(=O)CN2CCN(CC(=O)O)CCN(CC(=O)O)CCN(CC(=O)O)CC2)C(N)=O)NC(=O)[C@H](Cc2ccc(O)cc2)NC(=O)[C@H](C(C)C)NC(=O)[C@H](CC(=O)O)NC(=O)[C@H](Cc2ccc(O)cc2)NC(=O)[C@H](CCCCN)NC(=O)CNC(=O)[C@H](C(C)(C)C)NC1=O [compound 246, Ac-hLeu-Y-C-Tbg-G-K-Y-D-V-Y-C-1Nal-F-aMePro-dLys(DOTA)-CONH2] (Ac-[hLeu]YC[Tle]GKYDVYC[1Nal]F[αMeP][dK](DOTA)-NH2; disulfide 3-11) | 1 to 10
7 | CC(=O)N[C@@H](CCC(C)C)C(=O)N[C@@H](Cc1ccc(O)cc1)C(=O)N[C@H]1CSSC[C@@H](C(=O)N[C@@H](Cc2cccc3ccccc23)C(=O)N[C@@H](Cc2ccccc2)C(=O)N2CCC[C@@]2(C)C(=O)N[C@H](CCCCNC(=O)CN2CCN(CC(=O)O)CCN(CC(=O)O)CCN(CC(=O)O)CC2)C(N)=O)NC(=O)[C@H](Cc2ccc(O)cc2)NC(=O)[C@H](C(C)C)NC(=O)[C@H](CC(=O)O)NC(=O)[C@H](Cc2ccc(O)cc2)NC(=O)[C@H](CCCCN)NC(=O)CNC(=O)[C@H](C(C)C)NC1=O [compound 247, Ac-hLeu-Y-C-V-G-K-Y-D-V-Y-C-1Nal-F-aMePro-dLys(DOTA)-CONH2] (Ac-[hLeu]YCVGKYDVYC[1Nal]F[αMeP][dK](DOTA)-NH2; disulfide 3-11) | 1 to 10

Further lines, results first:

Row | Kd [nM] | Structure (SMILES)
8 | < 1 | CC(=O)N[C@@H](CCC(C)C)C(=O)N[C@@H](Cc1ccc(O)cc1)C(=O)N[C@H]1CSSC[C@@H](C(=O)N[C@@H](Cc2c[nH]c3ccc(F)cc23)C(=O)N[C@@H](Cc2ccccc2)C(=O)N[C@H](C(N)=O)C(C)(C)O)NC(=O)[C@H](Cc2ccc(O)cc2)NC(=O)[C@H](C(C)C)NC(=O)[C@H](CC(=O)O)NC(=O)[C@H](Cc2ccncc2)NC(=O)[C@H](CCCCNC(=O)CN2CCN(CC(=O)O)CCN(CC(=O)O)CCN(CC(=O)O)CC2)NC(=O)CNC(=O)[C@H](C(C)C)NC1=O [compound 229, Ac-hLeu-Y-C-V-G-Lys(DOTA)-4PyA-D-V-Y-C-5FW-F-hydroxyVal-CONH2] (Ac-[hLeu]YCVGK(DOTA)[4Pal]DVYC[Trp(5-F)]F[Val(3-OH)]-NH2; disulfide 3-11)
9 | 1 to 10 | CC(=O)N[C@@H](CCC(C)C)C(=O)N[C@@H](Cc1ccc(O)cc1)C(=O)N[C@H]1CSSC[C@@H](C(=O)N[C@@H](Cc2c[nH]c3ccc(Cl)cc23)C(=O)N[C@@H](Cc2ccccc2)C(=O)N[C@H](C(=O)N[C@H](CCCCNC(=O)CN2CCN(CC(=O)O)CCN(CC(=O)O)CCN(CC(=O)O)CC2)C(N)=O)[C@@H](C)O)NC(=O)[C@H](Cc2ccc(O)cc2)NC(=O)[C@H](C(C)C)NC(=O)[C@H](CC(=O)O)NC(=O)[C@H](Cc2ccc(O)cc2)NC(=O)[C@H](CCCCN)NC(=O)CNC(=O)[C@H](C(C)(C)C)NC1=O [compound 235, Ac-hLeu-Y-C-Tbg-G-K-Y-D-V-Y-C-5ClTrp-F-Thr-dLys(DOTA)-CONH2] (Ac-[hLeu]YC[Tle]GKYDVYC[Trp(5-Cl)]FT[dK](DOTA)-NH2; disulfide 3-11)
10 | < 1 | CC(=O)N[C@@H](CCC(C)C)C(=O)N[C@@H](Cc1ccc(O)cc1)C(=O)N[C@H]1CSSC[C@@H](C(=O)N[C@@H](Cc2c[nH]c3ccc(F)cc23)C(=O)N[C@@H](Cc2ccccc2)C(=O)N(C)[C@@H](CO)C(=O)N[C@H](CCCCNC(=O)CN2CCN(CC(=O)O)CCN(CC(=O)O)CCN(CC(=O)O)CC2)C(N)=O)NC(=O)[C@H](Cc2ccc(O)cc2)NC(=O)[C@H](C(C)C)NC(=O)[C@H](CC(=O)O)NC(=O)[C@H](CC2CCCCC2)NC(=O)[C@H](CC2CCNCC2)NC(=O)CNC(=O)[C@H](C(C)C)NC1=O [compound 236, Ac-hLeu-Y-C-V-G-PipAla-CHA-D-V-Y-C-5FW-F-NMeSer-dLys(DOTA)-CONH2] (Ac-[hLeu]YCVG[Ala(piperidin-4-yl)][Cha]DVYC[Trp(5-F)]F[NMeS][dK](DOTA)-NH2; disulfide 3-11)
11 | < 1 | CC(=O)N[C@@H](CCC(C)C)C(=O)N[C@@H](Cc1ccc(O)cc1)C(=O)N[C@H]1CSSC[C@@H](C(=O)N[C@@H](Cc2c[nH]c3ccc(F)cc23)C(=O)N[C@@H](Cc2ccccc2)C(=O)N[C@H](C(=O)N[C@H](CCCCNC(=O)CN2CCN(CC(=O)O)CCN(CC(=O)O)CCN(CC(=O)O)CC2)C(N)=O)[C@@H](C)O)NC(=O)[C@H](Cc2ccc(O)cc2)NC(=O)[C@H](C(C)C)NC(=O)[C@H](CC(=O)O)NC(=O)[C@H](Cc2ccncc2)NC(=O)[C@H](CCCCN)NC(=O)CNC(=O)[C@H](C(C)C)NC1=O [compound 240, Ac-hLeu-Y-C-V-G-K-4PyA-D-V-Y-C-5FW-F-Thr-dLys(DOTA)-CONH2] (Ac-[hLeu]YCVGK[4Pal]DVYC[Trp(5-F)]FT[dK](DOTA)-NH2; disulfide 3-11)
12 | < 1 | CC(=O)N[C@@H](CCC(C)C)C(=O)N[C@@H](Cc1ccc(O)cc1)C(=O)N[C@H]1CSSC[C@@H](C(=O)N[C@@H](Cc2cccc3ccccc23)C(=O)N[C@@H](Cc2ccccc2)C(=O)N2CCC[C@H]2C(=O)N[C@H](CCCCNC(=O)CN2CCN(CC(=O)O)CCN(CC(=O)O)CCN(CC(=O)O)CC2)C(N)=O)NC(=O)[C@H](Cc2ccc(O)cc2)NC(=O)[C@H](C(C)C)NC(=O)[C@H](CC(=O)O)NC(=O)[C@H](Cc2ccc(O)cc2)NC(=O)[C@H](CCCCN)NC(=O)CNC(=O)[C@H](C(C)(C)C)NC1=O [compound 244, Ac-hLeu-Y-C-Tbg-G-K-Y-D-V-Y-C-1Nal-F-Pro-dLys(DOTA)-CONH2] (Ac-[hLeu]YC[Tle]GKYDVYC[1Nal]FP[dK](DOTA)-NH2; disulfide 3-11)
